Article PMC10786919, “Design-rules for stapled peptides with in vivo activity and their application to Mdm2/X antagonists” (Nature Communications, 2024)
Like-named read-outs stand apart in the source and are kept apart here. Positions of bridges follow the written chain, without caps; N, C: chain ends. Non-standard residues stand in square brackets, D forms with d. Residues, ends and D or L forms follow the SMILES beside them. Trp(6-Cl) = N[C@@H](Cc1c[nH]c2cc(Cl)ccc12)C(=O)O; Lys(N3) = [N-]=[N+]=NCCCC[C@H](N)C(=O)O; 2Nal = N[C@@H](Cc1ccc2ccccc2c1)C(=O)O; R8 = C=CCCCCCC[C@@](C)(N)C(=O)O; Cba = N[C@@H](CC1CCC1)C(=O)O; S5 = C=CCCC[C@](C)(N)C(=O)O; Nle = CCCC[C@H](N)C(=O)O; Dap = NC[C@H](N)C(=O)O; Aib = CC(C)(N)C(=O)O; Ahx = NCCCCCC(=O)O; βAla = NCCC(=O)O

What was measured:
[1] = Lactate dehydrogenase (LDH) release assay; format: cell-based
Method: (§1) HCT116 cells were stably transfected with a p53 responsive β-lactamase reporter and expanded in McCoy’s 5 A Medium with 10% fetal bovine serum (FBS), Blasticidin, and Penicillin/Streptomycin and then transferred to 1.5 ml freezing vials and stored under liquid nitrogen in growth media containing 5% DMSO. […] The cells were then seeded into a 384-well plate at a density of 8000 cells per well. […] The final working concentration of DMSO was 0.5%. Lactate dehydrogenase release was detected using the CytoTox-ONE Homogenous Membrane Integrity Assay Kit (Promega), as per the manufacturer’s instructions. Measurements were carried out using the Tecan plate reader. […] Measurements were taken a minimum of three times (biological replicates) and values are reported as geometric means of the replicates.

HCT116 cells = experiment: Lactate dehydrogenase (LDH) release assay; format: cell-based
Method: as §1

[2] = 0% FBS 4Hr, read-out: LDH: Cytotoxicity assay EC50
[3] = 10% FBS 16Hr, read-out: LDH: Cytotoxicity assay EC50

SMILES | EC50 ([1]; LDH: Cytotoxicity assay: EC50) [µM] | EC50 ([1]; LDH: Cytotoxicity assay EC50) [µM] | LDH: Cytotoxicity assay % Effect (HCT116 cells) [%] | also measured
CC(=O)N[C@@H](CCCNC(=N)N)C(=O)NCCCCCC(=O)N[C@@H](CCCCN=[N+]=[N-])C(=O)N[C@@H](CC(C)C)C(=O)N[C@H](C(=O)N[C@@H](Cc1ccccc1)C(=O)N[C@]1(C)CCCCCCC=CCCC[C@@](C)(C(=O)N[C@@H](CO)C(=O)N[C@@H](C)C(=O)N[C@@H](C)C(N)=O)NC(=O)[C@H](CC2CCC2)NC(=O)[C@H](CCC(N)=O)NC(=O)[C@H](C)NC(=O)[C@H](Cc2c[nH]c3ccccc23)NC(=O)[C@H](Cc2ccc(O)cc2)NC(=O)[C@H](CCC(=O)O)NC1=O)[C@@H](C)O [MP-005] | > 50 |  |  | LDH: Cytotoxicity assay: % Effect (HCT116 cells): 39.54%
CC(=O)N[C@H](C(=O)N[C@@H](CO)C(=O)N[C@@H](Cc1ccccc1)C(=O)N[C@]1(C)CCCCCCC=CCCC[C@@](C)(C(=O)N[C@@H](CCC(=O)O)C(N)=O)NC(=O)[C@H](CC2CCC2)NC(=O)[C@H](CC(C)C)NC(=O)[C@H](C)NC(=O)[C@H](Cc2c[nH]c3cc(Cl)ccc23)NC(=O)[C@H](Cc2ccc(O)cc2)NC(=O)[C@H](CCC(=O)O)NC1=O)[C@@H](C)O [MP-043] (Ac-TSF[R8]EY[Trp(6-Cl)]AL[Cba][S5]E-NH2; staple 4-11) |  | > 50 | 3.493 | 
CC(=O)N[C@@H](CCCCN)C(=O)N[C@@H](CCCCN)C(=O)N[C@H](C(=O)N[C@@H](CO)C(=O)N[C@@H](Cc1ccccc1)C(=O)N[C@]1(C)CCCCCCC=CCCC[C@@](C)(C(N)=O)NC(=O)[C@H](CC2CCC2)NC(=O)[C@H](CC(C)C)NC(=O)[C@H](C)NC(=O)[C@H](Cc2c[nH]c3ccccc23)NC(=O)[C@H](Cc2ccc(O)cc2)NC(=O)[C@H](CCC(=O)O)NC1=O)[C@@H](C)O [MP-087] (Ac-KKTSF[R8]EYWAL[Cba][S5]-NH2; staple 6-13) |  | 35.2 | 23.77 | 
CC(=O)N[C@H](C(=O)N[C@@H](CO)C(=O)N[C@@H](Cc1ccccc1)C(=O)N[C@]1(C)CCCCCCC=CCCC[C@@](C)(C(=O)N[C@@H](CCC(=O)O)C(N)=O)NC(=O)[C@H](CC2CCC2)NC(=O)[C@H](CC(C)C)NC(=O)[C@H](C)NC(=O)[C@H](Cc2c[nH]c3ccccc23)NC(=O)[C@H](Cc2ccc(O)cc2)NC(=O)[C@H](CCC(=O)O)NC1=O)[C@@H](C)O [MP-140] (Ac-TSF[R8]EYWAL[Cba][S5]E-NH2; staple 4-11) |  | > 50 | 11.41 | 
CCCC[C@@H]1NC(=O)[C@H](CC(C)C)NC(=O)[C@H](C)NC(=O)[C@H](Cc2c[nH]c3ccccc23)NC(=O)[C@H](Cc2ccc(O)cc2)NC(=O)[C@H](CCC(=O)O)NC(=O)[C@](C)(NC(=O)[C@H](Cc2ccc3ccccc3c2)NC(=O)[C@H](CO)NC(=O)[C@@H](NC(C)=O)[C@@H](C)O)CCCCCCC=CCCC[C@@](C)(C(N)=O)NC1=O [MP-147] (Ac-TS[2Nal][R8]EYWAL[Nle][S5]-NH2; staple 4-11) |  | > 50 | 20.59 | 
CCCC[C@@H]1NC(=O)[C@H](CC(C)C)NC(=O)[C@H](C)NC(=O)[C@H](Cc2c[nH]c3ccccc23)NC(=O)[C@H](Cc2ccc(O)cc2)NC(=O)[C@H](CCC(=O)O)NC(=O)[C@](C)(NC(=O)[C@H](Cc2ccccc2)NC(=O)[C@H](CO)NC(=O)[C@@H](NC(C)=O)[C@@H](C)O)CCCCCCC=CCCC[C@@](C)(C(N)=O)NC1=O [MP-151] |  | > 50 | 9.894 | 
CCCC[C@H](NC(=O)[C@H](CC(C)C)NC(=O)[C@H](C)NC(=O)[C@H](Cc1c[nH]c2ccccc12)NC(=O)[C@H](Cc1ccc(O)cc1)NC(=O)[C@H](CCC(=O)O)NC(=O)C(C)(C)NC(=O)[C@H](Cc1ccccc1)NC(=O)[C@H](CO)NC(=O)[C@@H](NC(C)=O)[C@@H](C)O)C(=O)NC(C)(C)C(N)=O [MP-156] |  | > 50 | -1.482 | 
CC(=O)N[C@@H](CCCCN)C(=O)N[C@@H](CCCCN)C(=O)N[C@H](C(=O)N[C@@H](CO)C(=O)N[C@@H](Cc1ccccc1)C(=O)N[C@]1(C)CCCCCCC=CCCC[C@@](C)(C(=O)N[C@@H](CCC(=O)O)C(N)=O)NC(=O)[C@H](CC2CCC2)NC(=O)[C@H](CC(C)C)NC(=O)[C@H](C)NC(=O)[C@H](Cc2c[nH]c3ccccc23)NC(=O)[C@H](Cc2ccc(O)cc2)NC(=O)[C@H](CCC(=O)O)NC1=O)[C@@H](C)O [MP-157] (Ac-KKTSF[R8]EYWAL[Cba][S5]E-NH2; staple 6-13) |  | > 50 | 5.957 | 
CC(=O)N[C@@H](CCCCN)C(=O)N[C@@H](CCCCN)C(=O)N[C@H](C(=O)N[C@@H](CO)C(=O)N[C@@H](Cc1ccc2ccccc2c1)C(=O)N[C@]1(C)CCCCCCC=CCCC[C@@](C)(C(=O)N[C@@H](CCC(=O)O)C(N)=O)NC(=O)[C@H](CC2CCC2)NC(=O)[C@H](CC(C)C)NC(=O)[C@H](C)NC(=O)[C@H](Cc2c[nH]c3ccccc23)NC(=O)[C@H](Cc2ccc(O)cc2)NC(=O)[C@H](CCC(=O)O)NC1=O)[C@@H](C)O [MP-158] (Ac-KKTS[2Nal][R8]EYWAL[Cba][S5]E-NH2; staple 6-13) |  | > 50 | 9.197 | 
CC(=O)N[C@@H](CCCCN=[N+]=[N-])C(=O)NCCC(=O)N[C@@H](CC(C)C)C(=O)N[C@H](C(=O)N[C@@H](Cc1ccccc1)C(=O)N[C@]1(C)CCCCCCC=CCCC[C@@](C)(C(=O)N[C@@H](C)C(=O)NC(C)(C)C(=O)NC(C)(C)C(=O)NC(C)(C)C(=O)NC(C)(C)C(=O)NC(C)(C)C(N)=O)NC(=O)[C@H](CC2CCC2)NC(=O)[C@H](CCC(N)=O)NC(=O)[C@H](C)NC(=O)[C@H](Cc2c[nH]c3ccccc23)NC(=O)[C@H](Cc2ccc(O)cc2)NC(=O)[C@H](CCC(=O)O)NC1=O)[C@@H](C)O [MP-413] (Ac-[Lys(N3)][βAla]LTF[R8]EYWAQ[Cba][S5]A[Aib][Aib][Aib][Aib][Aib]-NH2; staple 6-13) |  |  |  | EC50 [1, 2]: > 50.7 µM; EC50 [1, 3]: > 50.7 µM; LDH: Cytotoxicity assay % Effect (HCT116 cells; 0% FBS 4Hr): 8.4%; LDH: Cytotoxicity assay % Effect (HCT116 cells; 10% FBS 16Hr): 10.36%
CC(=O)N[C@@H](CCCCN=[N+]=[N-])C(=O)NCCC(=O)N[C@@H](CC(C)C)C(=O)N[C@H](C(=O)N[C@@H](Cc1ccccc1)C(=O)N[C@]1(C)CCCCC#CC#CCCC[C@@](C)(C(=O)N[C@@H](C)C(=O)N[C@@H](C)C(=O)NC(C)(CCC(=O)O)C(=O)N[C@@H](C)C(=O)N[C@@H](C)C(=O)N[C@H](C)C(N)=O)NC(=O)[C@H](CC2CCC2)NC(=O)[C@H](CCC(N)=O)NC(=O)[C@H](C)NC(=O)[C@H](Cc2c[nH]c3ccccc23)NC(=O)[C@H](Cc2ccc(O)cc2)NC(=O)[C@H](CCC(=O)O)NC1=O)[C@@H](C)O (stereo partly drawn) [MP-467, Ac-K(N3)-(betaAla)-LTF(X)EYWAQ(Cba)(X)AA(a-methly-Glu)AA(DAla)-NH2] |  |  |  | EC50 [1, 2]: > 50.7 µM; EC50 [1, 3]: > 50.7 µM
CC(=O)N[C@@H](CCCCN=[N+]=[N-])C(=O)NCCC(=O)N[C@@H](CC(C)C)C(=O)N[C@H](C(=O)N[C@@H](Cc1ccccc1)C(=O)N[C@]1(C)CCCCCCC=CCCC[C@@](C)(C(=O)N[C@@H](CO)C(=O)N[C@@H](C)C(=O)N[C@@H](C)C(N)=O)NC(=O)[C@H](CC2CCC2)NC(=O)[C@H](CCC(N)=O)NC(=O)[C@H](C)N(C)C(=O)[C@H](Cc2c[nH]c3ccccc23)NC(=O)[C@H](Cc2ccc(O)cc2)NC(=O)[C@H](CCC(=O)O)NC1=O)[C@@H](C)O [MP-498] | > 50 |  |  | LDH: Cytotoxicity assay: % Effect (HCT116 cells): 7.026%
CC(C)C[C@H](NC(=O)CCNC(=O)[C@@H](N)CCCCN=[N+]=[N-])C(=O)N[C@H](C(=O)N[C@@H](Cc1ccccc1)C(=O)N[C@]1(C)CCCCCCC=CCCC[C@@](C)(C(=O)N[C@@H](CO)C(=O)N[C@@H](C)C(=O)N[C@@H](C)C(N)=O)NC(=O)[C@H](CC2CCC2)NC(=O)[C@H](CCC(N)=O)NC(=O)[C@H](C)NC(=O)[C@H](Cc2c[nH]c3ccccc23)NC(=O)[C@H](Cc2ccc(O)cc2)NC(=O)[C@H](CCC(=O)O)NC1=O)[C@@H](C)O [MP-618] | > 50.7 |  |  | 
CC(=O)N[C@@H](CCCCN=[N+]=[N-])C(=O)NCCC(=O)N[C@@H](CC(C)C)C(=O)N[C@@H](CCC(=O)O)C(=O)N[C@@H](Cc1ccccc1)C(=O)N[C@@]1(C)CCCCCCC=CCCC[C@@](C)(C(=O)N[C@@H](CO)C(=O)N[C@@H](C)C(=O)N[C@@H](C)C(N)=O)NC(=O)[C@H](CC2CCC2)NC(=O)[C@H](CCC(N)=O)NC(=O)[C@H](C)NC(=O)[C@H](Cc2c[nH]c3ccccc23)NC(=O)[C@H](Cc2ccc(O)cc2)NC(=O)[C@H](CCC(=O)O)NC1=O [MP-630] | > 50.7 |  |  | 
CC(=O)N[C@@H](CN)C(=O)N[C@@H](CN)C(=O)NCCCCCC(=O)N[C@H](C(=O)N[C@@H](CO)C(=O)N[C@@H](Cc1ccccc1)C(=O)N[C@]1(C)CCCCCCC=CCCC[C@@](C)(C(=O)N[C@@H](CCC(=O)O)C(=O)N[C@@H](CC(N)=O)C(=O)N[C@@H](Cc2ccccc2)C(N)=O)NC(=O)[C@H](CC(C)C)NC(=O)[C@H](CC(C)C)NC(=O)[C@H](C)NC(=O)[C@H](Cc2c[nH]c3ccccc23)NC(=O)[C@H](Cc2ccc(O)cc2)NC(=O)[C@H](CCC(=O)O)NC1=O)[C@@H](C)O [MP-663] (Ac-[Dap][Dap][Ahx]TSF[R8]EYWALL[S5]ENF-NH2; staple 7-14) |  | > 50 |  | 
CC(=O)N[C@H](CC(C)C)C(=O)N[C@H](C(=O)N[C@@H](Cc1ccccc1)C(=O)N[C@]1(C)CCCCCCC=CCCC[C@@](C)(C(=O)N[C@@H](CO)C(=O)N[C@@H](C)C(=O)N[C@H](C)C(N)=O)NC(=O)[C@H](CC2CCC2)NC(=O)[C@H](CC(C)C)NC(=O)[C@H](CCC(N)=O)NC(=O)[C@H](Cc2c[nH]c3ccccc23)NC(=O)[C@H](Cc2ccc(O)cc2)NC(=O)[C@H](CCC(=O)O)NC1=O)[C@@H](C)O [MP-7202] | > 50.6 |  |  | 
